The source of these data is patent publication US11530195B1, “Protacs targeting coronavirus 3CL protease and preparation method and application thereof” (SHAANXI PANLONG PHARMACEUTICAL CO., LTD., priority 2022, dated 2022).

Read-outs that look alike come from different tables or passages of the source. Where only a bound is given, the exact number is not on record here.

The IC50 is the concentration needed to halve the response being measured.

The target of assay [1] is T1, SARS-CoV-2 3CL^pro (Severe acute respiratory syndrome coronavirus 2 (2019-nCoV) (SARS-CoV-2), UniProt P0DTD1). Put plainly: 3CL^pro inhibitory activity test (fluorescence resonance energy transfer). It is filed as biochemical.
The target in assay [2] is T1, SARS-CoV-2 3CL^pro. It is filed as cell-based. Particulars: Western Blot. (In general: In western blotting, separated proteins are transferred to a membrane and probed.)
Where [3] appears, read: HEK293E cells transfected with 3CL^pro plasmid, 24 h treatment, read-out: DC50.
Where [4] appears, read: FRET, substrate Dabcyl-KTSAVLQSGFRKME-Edans 20 μM, enzyme 0.5 μM, read-out: IC50.
The mark [5] stands for this setting: HEK293E cells, 24 h, read-out: DC50 values.

On SARS-CoV-2 3CL^pro [1], `Cn1cc2cc(/N=c3\[nH]c(=O)n(Cc4cn(CCC(=O)Nc5cccc6c5CN(C5CCC(=O)NC5=O)C6=O)nn4)c(=O)n3Cc3cc(F)c(F)cc3F)c(Cl)cc2n1` (stereo not shown) [Compound 1] showed an IC50 of 100 to 1000 nM. Besides, the DC50 at SARS-CoV-2 3CL^pro [2] (setting [3]) is 100 to 1000 nM.
Take “(E)-7-(4-((4-((6-chloro-2-methyl-2H-indazol-5-yl)imino)-2,6-dioxy-3-(2,4,5-Trifluorobenzyl)-1,3,5-triazin-1-yl)methyl)-1H-1,2,3-triazol-1-yl)-N-(2-Preparation of (2,6-dioxopiperidin-3-yl)-1,3-dioxoisoindolin-4-yl)heptamide [Compound 11]”: the IC50 on SARS-CoV-2 3CL^pro [1] (setting [4]) lay in the range of 100 to 1000 nM. Moreover, the DC50 at SARS-CoV-2 3CL^pro [2] (setting [3]) lay in the range of 100 to 1000 nM.
As to `Cn1cc2cc(/N=c3\[nH]c(=O)n(Cc4cn(CCOCCOCC(=O)Nc5cccc6c5C(=O)N(C5CCC(=O)NC5=O)C6=O)nn4)c(=O)n3Cc3cc(F)c(F)cc3F)c(Cl)cc2n1` (stereo not shown) [Compound 17], the DC50 on SARS-CoV-2 3CL^pro [2] (setting [3]) and on SARS-CoV-2 3CL^pro [2] (setting [5]) was < 100 nM in each case.
Take `Cn1cc2cc(/N=c3\[nH]c(=O)n(Cc4cn(CCOCC(=O)Nc5cccc6c5CN(C5CCC(=O)NC5=O)C6=O)nn4)c(=O)n3Cc3cc(F)c(F)cc3F)c(Cl)cc2n1` (stereo not shown) [Compound 13, (E)-2-(2-(4-((4-((6-chloro-2-methyl-2H-indazol-5-yl)imino)-2,6-dioxy-3-(2,4,5-Trifluorobenzyl)-1,3,5-triazin-1-yl)methyl)-1H-1,2,3-triazol-1-yl)ethoxyyl)-N-(2-(2,6-dioxopiperidin-3-yl)-1-oxoisoquinolin-4-yl)acetamide]: the IC50 on SARS-CoV-2 3CL^pro [1] was in the range of 100 to 1000 nM. For the same compound, the DC50 on SARS-CoV-2 3CL^pro [2] (setting [3]) and at SARS-CoV-2 3CL^pro [2] (setting [5]) was < 100 nM in each case.
For the compound “(E)-8-(4-((4-((6-Chloro-2-methyl-2H-indazol-5-yl)imino)-2,6-dioxy-3-(2,4,5-Trifluorobenzyl)-1,3,5-triazin-1-yl)methyl)-1H-1,2,3-triazol-1-yl)-N-(2-Preparation of (2,6-dioxopiperidin-3-yl)-1,3-dioxoisoindolin-4-yl)octamide [Compound 12]”, the IC50 at SARS-CoV-2 3CL^pro [1] (setting [4]) lay within 100 to 1000 nM. For the same compound, the DC50 on SARS-CoV-2 3CL^pro [2] (setting [3]) lay in the range of 100 to 1000 nM.
Take `Cn1cc2cc(/N=c3\[nH]c(=O)n(Cc4cn(CCOCCOCC(=O)Nc5cccc6c5CN(C5CCC(=O)NC5=O)C6=O)nn4)c(=O)n3Cc3cc(F)c(F)cc3F)c(Cl)cc2n1` (stereo not shown) [Compound 14, (E)-2-(2-(2-(4-((4-((6-chloro-2-methyl-2H-indazol-5-yl)imino)-2,6-Dioxy-3-(2,4,5-trifluorobenzyl)-1,3,5-triazin-1-yl)methyl)-1H-1,2,3-triazol-1-yl)ethoxy)ethoxy)-N-(2-(2,6-dioxopiperidin-3-yl)-1-oxoisoindolin-4-yl)acetamide]: the DC50 at SARS-CoV-2 3CL^pro [2] (setting [3]) and at SARS-CoV-2 3CL^pro [2] (setting [5]) was < 100 nM each time.
For “(E)-2-(2-(4-((4-((6-chloro-2-methyl-2H-indazol-5-yl)imino)-2,6-dioxy-3-(2,4,5-Trifluorobenzyl)-1,3,5-triazin-1-yl)methyl)-1H-1,2,3-triazol-1-yl)ethoxy yl)-N-(2-(2,6-dioxopiperidin-3-yl)-1,3-dioxoisoindolin-4-yl)acetamide [Compound 16]”, on SARS-CoV-2 3CL^pro [1] (setting [4]), the IC50 fell in the range of 100 to 1000 nM. For the same compound, the DC50 at SARS-CoV-2 3CL^pro [2] (setting [3]) and on SARS-CoV-2 3CL^pro [2] (setting [5]) was < 100 nM each time.
As to `Cn1cc2cc(/N=c3\[nH]c(=O)n(Cc4cn(CCCCCC(=O)Nc5cccc6c5CN(C5CCC(=O)NC5=O)C6=O)nn4)c(=O)n3Cc3cc(F)c(F)cc3F)c(Cl)cc2n1` (stereo not shown) [Compound 4, (E)-6-(4-((4-((6-chloro-2-methyl-2H-indazol-5-yl)imino)-2,6-dioxy-3-(2,4,5-Trifluorobenzyl)-1,3,5-triazin-1-yl)methyl)-1H-1,2,3-triazol-1-yl)-N-(2-Preparation of (2,6-Dioxypiperidin-3-yl)-1-oxoisoquinolin-4-yl)hexanamide], the IC50 on SARS-CoV-2 3CL^pro [1] (setting [4]) was < 100 nM; at SARS-CoV-2 3CL^pro [1] (FRET, read-out: IC50 values), < 100 nM. Also, the DC50 on SARS-CoV-2 3CL^pro [2] (setting [3]) and on SARS-CoV-2 3CL^pro [2] (setting [5]) was < 100 nM in each case.
On to “(E)-4-(4-((4-((6-chloro-2-methyl-2H-indazol-5-yl)imino)-2,6-dioxy-3-(2,4,5-Trifluorobenzyl)-1,3,5-triazin-1-yl)methyl)-1H-1,2,3-triazol-1-yl)-N-(2-Preparation of (2,6-dioxopiperidin-3-yl)-1,3-dioxoisoindolin-4-yl)butanamide [Compound 8]”, for which the IC50 on SARS-CoV-2 3CL^pro [1] (setting [4]) was < 100 nM; at SARS-CoV-2 3CL^pro [1] (FRET, read-out: IC50 values), < 100 nM. Moreover, the DC50 on SARS-CoV-2 3CL^pro [2] (setting [3]) and at SARS-CoV-2 3CL^pro [2] (setting [5]) was < 100 nM each time.
As to “(E)-5-(4-((4-((6-chloro-2-methyl-2H-indazol-5-yl)imino)-2,6-dioxy-3-(2,4,5-Trifluorobenzyl)-1,3,5-triazin-1-yl)methyl)-1H-1,2,3-triazol-1-yl)-N-(2-Preparation of (2,6-dioxopiperidin-3-yl)-1,3-dioxoisoindolin-4-yl)pentanamide [Compound 9]”, the IC50 is < 100 nM at SARS-CoV-2 3CL^pro [1] (setting [4]) and < 100 nM at SARS-CoV-2 3CL^pro [1] (FRET, read-out: IC50 values). The DC50 on SARS-CoV-2 3CL^pro [2] (setting [3]) and on SARS-CoV-2 3CL^pro [2] (setting [5]) was < 100 nM each time.
The compound `Cn1cc2cc(/N=c3\[nH]c(=O)n(Cc4cn(CCC(=O)Nc5cccc6c5C(=O)N(C5CCC(=O)NC5=O)C6=O)nn4)c(=O)n3Cc3cc(F)c(F)cc3F)c(Cl)cc2n1` (stereo not shown) [Compound 7, (E)-3-(4-((4-((6-chloro-2-methyl-2H-indazol-5-yl)imino)-2,6-dioxy-3-(2,4,5-Trifluorobenzyl)-1,3,5-triazin-1-yl)methyl)-1H-1,2,3-triazol-1-yl)-N-(2-Preparation of (2,6-dioxopiperidin-3-yl)-1,3-dioxoisoindolin-4-yl)propionamide] gave an IC50 on SARS-CoV-2 3CL^pro [1] of 100 to 1000 nM. Moreover, on SARS-CoV-2 3CL^pro [2] (setting [3]), the DC50 is 100 to 1000 nM.
On to “(E)-6-(4-((4-((6-chloro-2-methyl-2H-indazol-5-yl)imino)-2,6-dioxy-3-(2,4,5-Trifluorobenzyl)-1,3,5-triazin-1-yl)methyl)-1H-1,2,3-triazol-1-yl)-N-(2-Preparation of (2,6-dioxopiperidin-3-yl)-1,3-dioxoisoindolin-4-yl)hexanamide [Compound 10]”, for which the IC50 was < 100 nM at SARS-CoV-2 3CL^pro [1] (setting [4]) and < 100 nM on SARS-CoV-2 3CL^pro [1] (FRET, read-out: IC50 values). For the same compound, the DC50 at SARS-CoV-2 3CL^pro [2] (setting [3]) and at SARS-CoV-2 3CL^pro [2] (setting [5]) was < 100 nM in each case.
For the compound “(E)-7-(4-((4-((6-chloro-2-methyl-2H-indazol-5-yl)imino)-2,6-dioxy-3-(2,4,5-Trifluorobenzyl)-1,3,5-triazin-1-yl)methyl)-1H-1,2,3-triazol-1-yl)-N-(2-Preparation of (2,6-Dioxypiperidin-3-yl)-1-oxoisoquinolin-4-yl)heptamide [Compound 5]”, at SARS-CoV-2 3CL^pro [1] (setting [4]), the IC50 is 100 to 1000 nM. The DC50 on SARS-CoV-2 3CL^pro [2] (setting [3]) and on SARS-CoV-2 3CL^pro [2] (setting [5]) was < 100 nM throughout.
Consider `Cn1cc2cc(/N=c3\[nH]c(=O)n(Cc4cn(CCOCCOCCOCC(=O)Nc5cccc6c5CN(C5CCC(=O)NC5=O)C6=O)nn4)c(=O)n3Cc3cc(F)c(F)cc3F)c(Cl)cc2n1` (stereo not shown) [Compound 15, (E)-2-(2-(2-(2-(4-((4-((6-chloro-2-methyl-2H-indazol-5-yl)imino)-2,6-Dioxy-3-(2,4,5-trifluorobenzyl)-1,3,5-triazin-1-yl)methyl)-1H-1,2,3-triazole-1-yl)ethoxy)ethoxy)ethoxy)-N-(2-(2,6-dioxopiperidin-3-yl)-1-oxoisoindolin-4-yl)ethyl Preparation of amides], for which, on SARS-CoV-2 3CL^pro [1], the IC50 fell in the range of 100 to 1000 nM. Further, the DC50 on SARS-CoV-2 3CL^pro [2] (setting [3]) and at SARS-CoV-2 3CL^pro [2] (setting [5]) was < 100 nM throughout.
